These results are taken from paper PMC3024946, “Hydroxyproline-containing collagen analogs trigger the release and activation of collagen-sequestered proMMP-2 by competition with prodomain-derived peptide P33-42” (Fibrogenesis & Tissue Repair, 2011).

Entries after “also recorded” stand apart in the source; their conditions may differ.

Assay [1] deals with T1, proMMP-2 / CI (Homo sapiens, UniProt P08253).
T1 construct: prodomain-containing proMMP-2 or proMMP-9; purchased Invitek
T1 sequence (P08253 30-660 limits assumed): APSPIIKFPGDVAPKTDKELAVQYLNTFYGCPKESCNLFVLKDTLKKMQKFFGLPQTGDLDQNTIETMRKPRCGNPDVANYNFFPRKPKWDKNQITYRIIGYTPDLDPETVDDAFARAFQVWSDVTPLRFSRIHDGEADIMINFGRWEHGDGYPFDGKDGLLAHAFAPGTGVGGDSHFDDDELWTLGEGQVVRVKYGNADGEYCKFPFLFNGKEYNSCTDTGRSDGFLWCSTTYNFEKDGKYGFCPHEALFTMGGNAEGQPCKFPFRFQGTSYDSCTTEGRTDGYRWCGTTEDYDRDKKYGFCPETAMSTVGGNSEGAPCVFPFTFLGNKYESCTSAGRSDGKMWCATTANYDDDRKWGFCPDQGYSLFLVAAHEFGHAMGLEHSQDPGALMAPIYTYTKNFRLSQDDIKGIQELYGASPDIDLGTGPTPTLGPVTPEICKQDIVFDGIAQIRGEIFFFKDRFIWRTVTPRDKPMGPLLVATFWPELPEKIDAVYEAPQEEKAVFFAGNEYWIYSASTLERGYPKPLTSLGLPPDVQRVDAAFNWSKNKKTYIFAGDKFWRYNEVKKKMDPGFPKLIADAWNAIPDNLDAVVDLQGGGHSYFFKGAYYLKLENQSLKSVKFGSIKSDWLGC
Description: SPR, competition of proMMP-2 binding to CI, nonactivating buffer. Here is the method: (§1) Sensor chip preparations and SPR measurements were performed using a BiacoreX device and the Bia-evaluation software (version 3.2; Biacore, Uppsala, Sweden). The pepsin-resistant triple-helical part of human fibrillar CI (100 μg/ml) in 10 mM acetate coupling buffer, pH 4.8, was immobilized to a dextran matrix-sensor chip at a flow rate of 5 μl/min, resulting in 5,500 resonance units from CI covalently linked via its primary amino groups. The control flow cell was prepared using the coupling buffer without CI. Surfaces were activated and blocked as described previously. […] The effects of (GPO)10, GAP, (POG)5, (GPP)10 and P33-42 on MMP-2 and MMP-9 binding to CI and their enzymatic activity were determined by adding the binding competitors to the (pro- and act)MMP-2 and MMP-9 solution in 10- to 150-fold molar excesses. Effects independent of MMP-2 and MMP-9 activity were monitored in the presence of Ro 28-2653 (1 μM) during SPR analysis. […] Kinetic parameters were analyzed using the 1:1 binding model with drifting baseline and subtraction of the control flow cell binding from sensorgrams obtained with immobilized CI. Binding constants (Kd) were calculated from the association (ka) and dissociation rates (kd) obtained from individual binding curves at different concentrations. […]
For orientation: Surface plasmon resonance follows binding to a sensor surface in real time, without labels.

The target of assay [2] is T2, proMMP-9 / CI (Homo sapiens, UniProt P14780).
T2 construct: prodomain-containing proMMP-2 or proMMP-9; purchased Invitek
T2 sequence (P14780 20-707 limits assumed): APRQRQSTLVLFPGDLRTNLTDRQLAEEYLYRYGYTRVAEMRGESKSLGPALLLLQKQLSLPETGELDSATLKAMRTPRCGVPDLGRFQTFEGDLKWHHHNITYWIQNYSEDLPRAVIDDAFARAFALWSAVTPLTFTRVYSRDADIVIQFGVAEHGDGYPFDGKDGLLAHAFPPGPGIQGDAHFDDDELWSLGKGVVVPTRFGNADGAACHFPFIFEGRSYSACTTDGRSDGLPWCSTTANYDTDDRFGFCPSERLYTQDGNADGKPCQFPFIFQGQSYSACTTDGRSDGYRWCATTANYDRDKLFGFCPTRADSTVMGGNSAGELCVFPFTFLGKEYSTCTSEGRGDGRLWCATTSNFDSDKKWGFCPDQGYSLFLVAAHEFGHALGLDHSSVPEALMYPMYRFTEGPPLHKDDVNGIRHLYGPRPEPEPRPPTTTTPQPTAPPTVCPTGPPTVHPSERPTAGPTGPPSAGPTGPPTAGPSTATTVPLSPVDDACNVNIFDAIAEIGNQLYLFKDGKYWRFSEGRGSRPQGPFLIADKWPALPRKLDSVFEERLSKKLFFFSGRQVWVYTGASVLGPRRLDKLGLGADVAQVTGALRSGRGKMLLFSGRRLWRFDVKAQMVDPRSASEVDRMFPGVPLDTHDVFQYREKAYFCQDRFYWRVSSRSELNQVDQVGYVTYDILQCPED
Briefly: SPR, competition of proMMP-9 binding to CI, nonactivating buffer. Here is the method:
as §1

In assay [3] the target is T3, actMMP-9 / CI (Homo sapiens, UniProt P14780).
T3 construct: purchased Invitek
T3 sequence (P14780 107-707 limits assumed): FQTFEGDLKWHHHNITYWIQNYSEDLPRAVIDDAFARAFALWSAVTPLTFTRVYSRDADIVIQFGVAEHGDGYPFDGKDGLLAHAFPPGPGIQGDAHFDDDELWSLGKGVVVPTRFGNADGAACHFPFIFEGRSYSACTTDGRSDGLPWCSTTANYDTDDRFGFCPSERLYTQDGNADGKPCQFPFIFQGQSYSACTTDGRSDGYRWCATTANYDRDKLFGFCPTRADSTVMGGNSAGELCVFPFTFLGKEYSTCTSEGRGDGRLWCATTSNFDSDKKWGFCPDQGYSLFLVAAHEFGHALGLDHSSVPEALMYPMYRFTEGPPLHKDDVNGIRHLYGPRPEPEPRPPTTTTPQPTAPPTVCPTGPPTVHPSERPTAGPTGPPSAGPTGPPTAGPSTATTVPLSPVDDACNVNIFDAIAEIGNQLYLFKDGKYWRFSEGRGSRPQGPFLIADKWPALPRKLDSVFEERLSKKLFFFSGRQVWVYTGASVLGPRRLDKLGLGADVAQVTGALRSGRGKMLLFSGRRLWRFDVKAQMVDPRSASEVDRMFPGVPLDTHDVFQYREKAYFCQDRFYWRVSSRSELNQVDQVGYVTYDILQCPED
Briefly: SPR, competition of actMMP-9 binding to CI, nonactivating buffer. The following applies: actMMP-9 (100 nM) binding to CI with 10× (GPO)10; PBS, 0.05% Tween 20. As for the experimental part:
as §1

Assay [4] has as its system ProMMP-2. Description: DQ-gelatine degradation assay with MMP-2. The format is biochemical, human. The note with it: 5 h at 25°C. As for the experimental part: Enzymatic activities of MMPs were studied spectrofluorimetrically by cleavage of fluorogenic substrates in MMP activity buffer within 2 to 5 h. For gelatinases 800 nM MCA-Pro-Leu-Gly-Leu-Dnp-Dap-Ala-Arg-NH2 (λex/em 328/393 nm; Bachem, Bubendorf, Switzerland) or 10 μg/ml DQ-gelatine were used, according to the method described by Knight et al. for collagenases 800 nM MCA-Pro-Cha-Gly-Nva-His-Ala-Dpa-NH2 (λex/em 280/360 nm; Anaspec, San José, CA, USA). In some experiments, proMMP-2 was fully activated in the presence of 1 mM APMA prior to the kinetic measurements. A quantity of 50 ng pro- or actMMP-2 alone or mixed with 10- to 150-fold molar excesses of (GPO)10, GAP, P33-42 or mixtures of (GPO)10 and P33-42, were added to CI-coated, BSA-coated (1 μg/well both) or uncoated wells containing 150 μl of the respective substrate solution. The peptide P33-42 was purchased from the Institute of Biochemistry (Humboldt-University, Berlin, Germany). The influence of CI on MMP-2 enzymatic activity against the quenched fluorescent substrate could be excluded. Background subtraction (measurement without MMPs) was applied to all curves. All experiments were performed with a fluorescence microplate reader (Molecular Devices, Sunnyvale, CA, USA) and black 96-well microtiter plates with a clear bottom (Greiner bio-one, Frickenhausen, Germany).

For assay [5], the system named is Cy2-proMMP-2 bound to cirrhotic human liver tissue. Description: Release / prevention of binding of Cy2-proMMP-2 in cirrhotic liver sections. The note with it: 10-fold molar excess, fluorescence microscopy. Here is the method:
ProMMP-2 was labeled using the FluoroLink Cy2 Labeling Kit according to the manufacturer's instructions (Amersham Biosciences, Freiburg, Germany). Unbound fluorescent dye was removed by ultrafiltration (Nanosep, Lund, Sweden), and labeling success was monitored using a fluorescence microplate reader (λex/em, 489/506 nm). Serial cirrhotic human liver sections were covered with 1.2 μg/ml Cy2-proMMP-2 in 50 mM Tris·HCl, pH 7.4, containing 1 mM CaCl2 or with buffer alone, and were incubated in a dark humidified chamber for 24 h at 4°C. To study effects of (GPO)10, a 10-fold molar excess in relation to proMMP-2 was added to slides prior to or after Cy2-proMMP-2 binding. Slides were washed with PBS, air-dried, and rinsed with deionized water. Bound Cy2-proMMP-2 was detected by fluorescence microscopy (Olympus, Hamburg, Germany).

As for “H-Gly-Cys-Hyp-(Gly-Pro-Hyp)10-Gly-Cys-Hyp-Gly-NH2 [(GPO)10, triple-helical Hyp-containing collagen analog]”, the Off rate came to 0.37 s⁻¹ in assay [1] (proMMP-2 (100 nM) binding to CI with 10× (GPO)10, PBS, 0.05% Tween 20); 0.22 s⁻¹ in assay [2] (proMMP-9 (100 nM) binding to CI with 10× (GPO)10, PBS, 0.05% Tween 20); 0.61 s⁻¹ in assay [3]. The “effect on binding to CI” value in assay [1] (proMMP-2, 10-fold molar excess) is recorded as “only slightly impaired”; in assay [2] (proMMP-9, 10-fold molar excess), “more pronounced effects”. The “DQ-gelatine cleavage by proMMP-2” value in assay [4] (50- to 100-fold molar excesses) is recorded as “significantly enhanced”; in assay [4] (150-fold molar excess) it was “shift from an active MMP-2 to an enzymatically blocked enzyme; also recorded: reduction of MMP-2 gelatinolytic activity”. Moreover, the “prevention of binding of Cy2-proMMP-2” value in assay [5] (coincubation) is “prevented gelatinase binding”. For the same substance, the “release of bound Cy2-proMMP-2” value in assay [5] (subsequent treatment) was “promoted effective release of the sequestered enzyme”.
